Data published in patent US20070111258A1, “Compositions and methods for modulating the acute phase response” (priority 2005, published 2007).

Tested on: CREBH mRNA
Experiment: CREBH mRNA induction in H2.35 cells (Northern blot, quantitative real-time RT-PCR)
Assay type: cell-based
Conditions: murine H2.35 hepatoma cells; IL6 40 ng/ml, TNFα 20 ng/ml, IL1β 40 ng/ml, DTT 5 mM, Tg 0.5 μM, Tm 5 μg/ml, BFA 0.5 μg/ml; 4, 8, 12 hours
Experimental: FIG. 1 depicts the induction of expression of CREBH during fetal liver development and by proinflammatory cytokines. (A) Structural comparison of CREBH and ATF6. The domains are indicated by residue numbers of amino acids. (B) Northern blot analysis of CREBH mRNA levels in various tissues from mice. Tissue samples were collected from 3-month-old wild-type C57BL/6J mice. Levels of β-actin mRNA were determined for control of sample loading. (C) Expression profile of CREBH mRNA in fetal livers during embryogenesis. (D) Induction of CREBH mRNA in murine hepatoma cell line H2.35 under IL6 (40 ng/ml) stimulation for various time points. For panels A-D, experiments were performed at least 3 times and representative data are shown.
FIG. 2 depicts the analysis of gene expression in H2.35 cells. H2.35 cells were treated with 20 ng/ml TNFα, 40 ng/ml IL1β, 20 μg.ml LPS, 5 mM DTT, 0.5 μM Tg, 5 μg/ml Tm or 0.5 μg/ml BFA for 4, 8 and 12 hours, respectively. Levels of CREBH mRNA (A) and spliced XBP1 mRNA (B) in H2.35 were determined by quantitative real-time RT-PCR. Fold changes of mRNA induction were determined after normalization of the mRNA levels to internal control 18S ribosomal RNA levels. […] However, expression from the SAP or CRP promoter-reporter plasmids is sufficiently measurable in H2.35 cells so that it is possible to investigate transcriptional activation effects of CREBH on the CRP and SAP promoters by reporter assays in H2.35 cells. These reporter experiments are not possible in non-hepatocyte cell lines. However, for non-hepatocyte cell lines, such as wild-type and mutant CHO cells, CREBH cleavage and activation could be measured using the UPRE reporter assay. (C) Summary of stimuli that induce CREBH mRNA, NF-κB activation and the UPR in H2.35 and HepG2 cells. (D) Expression of BiP and GRP94 in H2.35 cells over-expressing CREBH or ATF6. H2.35 cells in a 35 mm collagen-coated plate were transfected with 1.5 μg empty DNA vector, vector expressing the nuclear form of CREBH (CREBH-N) or vector expressing nuclear form of ATF6 (ATF6 p50), respectively. Expression levels of BiP and GRP 94 were determined by Western blot analysis by using a murine and —BiP monoclonal antibody and a murine anti-GRP94 monoclonal antibody, respectively. The membranes were re-blotted with an anti-α-actin antibody for control of sample loading.
Northern blot analysis was performed according to standard procedures (Sambrook et al., 1989). ^32P-labeled probes were prepared using a random prime labeling system (Amersham Pharmacia, Piscataway, N.J., USA). A 210 bp mouse CREBH cDNA fragment, a 250 bp mouse CRP cDNA fragment and a 260 bp mouse SAP cDNA fragment were amplified from murine total RNA by reverse transcription-PCR system (Roche Applied Science), respectively, and were used as probes for Northern blot analyses. Total RNA (15 μg) per sample purified from cultured cells or murine tissues was used for Northern blot analysis. Quantitative real-time RT-PCR was performed as previously described (Back et al., 2005). Briefly, total cellular RNA prepared was reverse-transcribed to cDNA using a random primer (Applied Biosystems). The reaction mixture, containing SYBR Green PCR Master Mix (Applied Biosystems), was run in a 7900HT Fast Real-Time PCR System (Applied Biosystems). Real-time PCR primer sequences for quantification of murine XBP1 mRNA splicing are: the forward primer 5′-[…]-3′, and the reverse primer 5′-[…]-3′. Other primer sequences were designed by Primer Express (Applied Biosystems).

Substance: tunicamycin [Tm]
- induction of CREBH mRNA: minor effect
